“Also recorded” adds a separate entry of the source.
Key:
[1] = test system: Lewis lung carcinoma (LLC) cells; assay: Lewis lung carcinoma allograft in C57BL/6J mice with immunohistochemistry; assay type: in vivo, mouse
Description: HIF-1α is synthesized by growth factor signaling pathways, such as those of EGFR [30] [31]. Inhibition of HIF-1α in its pathways of synthesis, as well as in its pathway of degradation, would seem to make for a more efficient anti-cancer/anti-angiogenesis treatment. To confirm this, we performed a tumor allogaft experiment using Lewis lung carcinoma (LLC) cells. 1 × 10^6 LLC cells were inoculated into the mouse flank subcutaneously (s.c.), and treatment with Compound 12 (5 mg/kg) and/or gefitinib (an EGFR inhibitor, 50 mg/kg), via intraperitoneal (i.p.) administration, was performed every other day for 20 days. At Day 20, mice were sacrificed and tumor tissue was fixed in formaldehyde for 1 h for further histological examination. […] To confirm the effect of Compound 12 on angiogenesis, we analyzed angiogenesis using the Matrigel plug assay. […] To confirm the effects of Compound 12 on anti-angiogenesis, we sectioned the tumor tissues to determine microvessel density (MSD) via immunohistochemistry (using CD31 antibody).
Figure 6 Compound 12 suppressed allogaft tumor growth and enhanced the effects of a chemotherapeutic agent (A, B) Lewis lung carcinoma cells were inoculated into flanks of C57BL/6J mice (Day 0). From two days after inoculation, mice were treated intraperitoneally with Compound 12 (5 mg/kg body weight) and gefitinib (50 mg/kg body weight), three times a week, for 18 days and then sacrificed. Tumor size (A) and tumor weight (B) were measured three times a week and on the final day, respectively. Tumor masses were photographed and shown in box below the graph. **P < 0.05 versus control group. (C) Matrigel was treated with DMSO, Compound 12 (100 nM), and gefitinib (5 μM) and inoculated in the flank of C57BL/6J mice. After 10 days matrigel plug was removed and photographed. The content of hemoglobin was quantified and graphed. (D) Tumor tissue sections (10 μm) indicated were stained with H&E and immunostained with anti-CD31 antibody to detect microvessel density; CD31+ cell percentages were then calculated and graphed. Scale bar, 100 μm. **P < 0.05 versus control group. (E) Images and quantitative comparisons (graph) for hypoxic regions, immunostained CA9 protein, and microvessels (CD31+ cells) in tumor center regions are shown. Scale bar, 100 μm. **P < 0.05 versus control group. (F) Images and quantitative comparisons (graph) for Ki67+ proliferating cells in tumor center regions are shown. Scale bar, 100 μm. **P < 0.05 versus control group.
We determined levels of hypoxia in tissues via: 1) antibodies against the hypoxic cell marker pimonidazole (PIMO), and 2) checking expression levels of carbonic anhydrase (CA9), a downstream target of HIF-1.
LLC cells (1 × 10^6) were injected subcutaneously into the flanks of 6-week-old C57BL/6J mice (Day 0)(SLC, Japan). Tumor size and body weight were measured 3 time a week. Tumor tissues were removed at day 20 after completion of injection of vehicle or drugs and fixed with 4% paraformaldehyde (PFA). After tissue processing for frozen sample preparation protocol, samples were embedded in OCT compound and frozen quickly by liquid nitrogen. Frozen blocks were cut into 10 μm sections and stained with hematoxylin and eosin (H&E) for light microscopy. Additional tissue sections for immunohistochemistry were blocked with 5% goat serum in PBST (0.03% Triton X-100 in PBS) and then incubated for 3 h at RT with following primary antibodies, anti-CD31 and anti-Ki67. To detect the hypoxic area in the tumors, Hypoxyprobe-1™ (60 mg/kg, Natural Pharmacia International) was iv injected 90 min before tissue fixation. Tumors were harvested, sectioned and stained with FITC-conjugated anti-Hypoxyprobe antibody.

HUVECs = assay: Transwell cell migration assay, VEGF-induced; assay type: cell-based, human; conditions: VEGF 20 ng/mL, 24 h
Description: Figure 5 Compound 12 suppressed HIF-1α target gene expression, and confirmation of in vitro results via determination of effects on angiogenesis in vivo (A) A549 cells were treated with Compound 12 (at concentrations of 0 nM, 1 nM, 10 nM, and 100 nM) for 16 h. The mRNA levels of HIF-1α target genes were determined by semiquantitative RT-PCR. β-actin was used as an internal control. D. DMSO vehicle control. N, normoxia; H, hypoxia. (B) A549 cells were treated with serum-reduced culture media containing Compound 12 (at concentrations of 0 nM, 10 nM, and 100 nM) for 16 h. Media supernatant was collected, and secreted VEGF was determined by ELISA after removal of cellular debris. N, normoxia; H, hypoxia. **P < 0.01 versus hypoxia (H) DMSO (D)-treated control. (C) HUVECs were treated with Compound 12, at the indicated concentrations, in the presence of VEGF (20 ng/mL) for 24 h in 1% serum-containing media. […] Cells that migrated through the membrane (8 μm pore size) were stained with hematoxylin and eosin, pictured as shown in upper panel, and counted (graph). *P < 0.05, **P < 0.01 versus VEGF-treated control. […] (F) Compound 12 (0.1 μg and 1 μg dosages) and retinoic acid (RA, positive control) were applied to the ED 4.5 CAM for two days, neovessel formation from the large vessels was observed, and percentages of positive angiogenic eggs (from total eggs tested) were calculated. […]

In the case of `COc1ccc(-c2cn(CC3(C)C=Cc4cc([N+](=O)[O-])ccc4O3)nn2)cc1` (stereo not drawn) [Compound 12, 4-(4-methoxyphenyl)-1-((2-methyl-6-nitro-2H-chromen-2-yl)methyl)-1H-1,2,3-triazole], the “PIMO/CA9 levels in tumors, Compound 12 combined with gefitinib” value ([1]; LLC allograft tumor sections) is reported as “decreased synergistically”, the “levels of PIMO and CA9 in tumors, single agent” value ([1]; LLC allograft tumor sections) is reported as “significantly diminished” and the “microvessel density (MSD), CD31, Compound 12 combined with gefitinib” value ([1]; LLC allograft tumor sections) is reported as “synergistically decreased MSD”. The “microvessel density (MSD), CD31, single agent” value ([1]; LLC allograft tumor sections) was “significantly decreased MSD”, the “cells expressing Ki-67 protein in tumors” value ([1]; LLC allograft tumor sections, single agent) was “significantly decreased” and the “tumor growth, single agent” value ([1]; LLC allograft, C57BL/6J mice, i.p., Compound 12 5 mg/kg, gefitinib 50 mg/kg) was “inhibited tumor growth significantly”. For the same molecule, the tumor weight ([1]; LLC allograft, i.p., 5 mg/kg, final day) was “significantly decreased”, the “tumor growth, Compound 12 combined with gefitinib” value ([1]; LLC allograft, i.p., Compound 12 5 mg/kg plus gefitinib 50 mg/kg) was “significantly inhibited tumor growth and angiogenesis; also recorded: suppressed tumor growth more effectively than did either drug alone” and the VEGF-induced endothelial migration (HUVECs) was “significantly inhibited”.
